Data on three compounds can be found in US4317821A, “Maytansinoids, their use and pharmaceutical compositions thereof” (Takeda Chemical Industries, Ltd., priority 1979, dated 1982).

Test [1] has as its system melanoma B-16 tumor cells. Kind of test: Antitumor activity: life span prolongation in mice intraperitoneally transplanted with melanoma B-16 (NCI-protocol 1,300). The settings on record: intraperitoneally once daily for 9 consecutive days. The test is classed as in vivo. Here is the method: Therapeutic tests were carried out in mice according to NCI-protocol 1,300, Cancer Chemother, Reports, Part 3, 1972, Vol. 3, No. 2, in which melanoma B-16 tumor cells had been intraperitoneally transplanted, compound (I) being administered intraperitoneally once daily for 9 consecutive days.

The next test relates to Tetrahymena pyriformis W. Kind of test: Antiprotozoal activity: growth inhibition by serial dilution method. It counts as cell-based. The settings on record: 28° C., 44 to 48 hours, pH 7.0 medium. Here is the method: Antiprotozoal activity of compound (I) was assayed with Tetrahymena pyriformis W as the test organism and a medium composed of 20 g tryptose-peptone (Difco Co.), 1 g yeast extract, 2 g glucose, 1000 ml distilled water, 10 ml 1 M phosphate buffer (pH 7.0) as the assay medium. The microorganism was incubated at 28° C. for 44 to 48 hours and the growth inhibitory activity of compound (I) was assayed by the serial dilution method.

Converted amounts (≈) assume the structure as drawn.

As for `COc1cc2cc(c1Cl)N(C)C(=O)CC(OC(=O)C(O)c1ccccc1)C1(C)OC1C(C)C1CC(O)(NC(=O)O1)C(OC)C=CC=C(C)C2` (single isomer, unassigned) [maytansinol 3-α-hydroxyphenylacetate], the “Antitumor activities B-16 (T/C %)” value in test [1] (dose 100 μg/kg) was 178%; in test [1] (dose 200 μg/kg), 208%; in test [1] (dose 400 μg/kg), 247%; in test [1] (dose 800 μg/kg), 217%.

The term MIC denotes the lowest concentration that inhibits growth of the organism. Low values mean inhibition by little substance, high ones a need for much substance. For `COc1cc2cc(c1Cl)N(C)C(=O)CC(OC(=O)C(OC(C)=O)c1ccccc1)C1(C)OC1C(C)C1CC(O)(NC(=O)O1)C(OC)C=CC=C(C)C2` (stereo not drawn) [Maytansinol 3-α-acetoxyphenylacetate, maytansinol 3-(α-acetoxyphenyl)acetate], the “Antitumor activities B-16 (T/C %)” value in test [1] (dose 3.125 μg/kg) amounted to 181%; in test [1] (dose 6.25 μg/kg), 260%; in test [1] (dose 12.5 μg/kg), 161%. The compound further yielded an MIC in the test with Tetrahymena pyriformis W of less than 2 µg/mL.

For `COc1cc2cc(c1Cl)N(C)C(=O)CC(OC(=O)C(COC(C)=O)c1ccccc1)C1(C)OC1C(C)C1CC(O)(NC(=O)O1)C(OC)C=CC=C(C)C2` (stereo not drawn) [maytansinol 3-α-acetoxymethylphenylacetate], the minimal inhibitory concentration (MIC) against Tetrahymena pyriformis W is 1 to 2 µg/mL (≈ 1.32 to 2.65 µM).
